How the values were obtained:
KRAS G12C = KRAS G12C (Homo sapiens, UniProt P01116, G12C); experiment: GDP-GTP exchange assay (fluorescence based guanine nucleotide exchange, bodipy-GDP for GppNHp, SOS1); format: biochemical; conditions: bodipy-loaded KRAS G12C, 2 hours pre-incubation with inhibitor, read-out: G12C_exchange (KRAS_G12C exchange assay IC50)
How it was run: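 Bodipy-GDP-loaded KRAS G12C (5-25 nM final) pre-incubated 2 h with inhibitor in Hepes pH 7.5, MgCl2 buffer, then exchange started with 500 uM GppNHp and 150 nM SOS1 for 2 h at ambient temperature. G12D and G12V used 2.5 nM protein, with 4 h and 3 h exchange respectively. Fluorescence read at 485/520 nm; IC50 from four-parameter logistic fit.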

[1] = tested on: MIA PaCa-2 cells (KRAS G12C); experiment: Whole blood pERK1/2 HTRF assay; format: cell-based; conditions: Homo sapiens, compound in whole blood, 4 hours, phospho-ERK 1/2 HTRF, read-out: G12C_WB_pERK assay IC50
Description: MIA PaCa-2 cells (KRAS G12C; ATCC® CRL-1420) and HPAF-II (KRAS G12D; ATCC® CRL-1997) are maintained in RPMI 1640 with 10% FBS (Gibco/Life Technologies). The cells are seeded into 96 well tissue culture plates (Corning #3596) at 25000 cells per well in 100 uL media and cultured for 2 days at 37° C. 5% CO2 so that they are approximately 80% confluent at the start of the assay. Whole Blood are added to the 1 uL dots of compounds (prepared in DMSO) in 96 well plates and mixed gently by pipetting up and down so that the concentration of the compound in blood is 1× of desired concentration. The media is aspirated from the cells and 50 uL per well of whole blood with G12C or G12D compound is added and incubated for 4 or 2 hours respectively at 37° C. 5% CO2. After dumping the blood, the plates are gently washed twice by adding PBS to the side of the wells and dumping the PBS from the plate onto a paper towel, tapping the plate to drain well. 50 ul/well of 1× lysis buffer #1 (Cisbio) with blocking reagent (1:25) (Cisbio) is then added and incubated at room temperature for 30 minutes with shaking (250 rpm). Following lysis, 16 uL of lysate is transferred into 384-well Greiner small volume white plate using an Assist Plus (Integra Biosciences, NH). 4 uL of 1:1 mixture of anti Phospho-ERK 1/2 d2 and anti Phospho-ERK 1/2 Cryptate (Cisbio) is added to the wells using the Assist Plus and incubated at room temperature overnight in the dark. Plates are read on the Pherastar plate reader at 665 nm and 620 nm wavelengths. IC50 determination is performed by fitting the curve of inhibitor percent inhibition versus the log of the inhibitor concentration using the GraphPad Prism 7 software.

[2] = tested on: MIA PaCa-2 (KRAS G12C) cells; experiment: Cellular pERK HTRF assay; format: cell-based; conditions: Homo sapiens; MIA PaCa-2 cells, 4 hours, phospho-ERK 1/2 HTRF; read-out: G12C_pERK (KRAS_G12C pERK assay IC50)
Description: MIA PaCa-2 (KRAS G12C; ATCC® CRL-1420), A427 (KRAS G12D; ATCC® HTB53), HPAF-II (KRAS G12D; ATCC® CRL-1997) and NCI-H838 (KRAS WT; ATCC® CRL-5844) cells are purchased from ATCC and maintained in RPMI 1640 media supplemented with 10% FBS (Gibco/Life Technologies). The cells are plated at 5000 cells per well (8 uL) into Greiner 384-well low volume, flat-bottom, tissue culture treated white plates and incubated overnight at 37° C. 5% CO2. The next morning, test compound stock solutions are diluted in media at 3× the final concentration, and 4 uL are added to the cells. The plate is mixed by gentle rotation for 30 seconds (250 rpm) at room temperature. The cells are incubated with the KRAS G12C and G12D compounds for 4 hours or 2 hours respectively at 37° C., 5% CO2.
4 uL of 4× lysis buffer with blocking reagent (1:25) (Cisbio) are added to each well and plates are rotated gently (300 rpm) for 30 minutes at room temperature. 4 uL per well of Cisbio anti Phospho-ERK 1/2 d2 is mixed with anti Phospho-ERK 1/2 Cryptate (1:1) are added to each well, mixed by rotation and incubated overnight in the dark at room temperature. Plates are read on the Pherastar plate reader at 665 nm and 620 nm wavelengths. IC50 determination is performed by fitting the curve of inhibitor percent inhibition versus the log of the inhibitor concentration using the GraphPad Prism 7 software.

Chain of KRAS G12C (P01116 1-188 isoform P01116-2 G12C): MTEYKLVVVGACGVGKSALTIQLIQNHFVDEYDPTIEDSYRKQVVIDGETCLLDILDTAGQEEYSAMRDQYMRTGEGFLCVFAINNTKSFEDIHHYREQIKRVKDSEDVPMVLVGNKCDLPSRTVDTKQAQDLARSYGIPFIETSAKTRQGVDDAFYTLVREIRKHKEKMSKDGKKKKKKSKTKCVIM

Row | SMILES | IC50 (KRAS G12C) [nM] | IC50 [1] [nM] | IC50 [2] [nM]
1 | C=CC(=O)N1CC(F)(Cn2c(=O)c(=O)n(-c3c(C)ccnc3C(C)C)c3nc(-c4c(O)cccc4Cl)c(Cl)cc32)C1 [Example 56, 1-((1-acryloyl-3-fluoroazetidin-3-yl)methyl)-7-chloro-6-(2-chloro-6-hydroxyphenyl)-4-(2-isopropyl-4-methylpyridin-3-yl)-1,4-dihydropyrido[2,3-b]pyrazine-2,3-dione] | ≤ 100 | ≤ 100 | ≤ 100
2 | C=CC(=O)N1CC(F)(Cn2c(=O)c(=O)n(-c3c(C)ccnc3C(C)C)c3nc(-c4c(Cl)cccc4CO)c(Cl)cc32)C1 [Example 59, 1-((1-acryloyl-3-fluoroazetidin-3-yl)methyl)-7-chloro-6-(2-chloro-6-(hydroxymethyl)phenyl)-4-(2-isopropyl-4-methylpyridin-3-yl)-1,4-dihydropyrido[2,3-b]pyrazine-2,3-dione] | ≤ 100 | 100 to 1000 | ≤ 100
3 | C=CC(=O)N1CC(F)(Cn2c(=O)c(=O)n(-c3c(C(C)C)ccnc3C(C)C)c3nc(-c4c(O)cccc4Cl)c(Cl)cc32)C1 [Example 61, 1-((1-acryloyl-3-fluoroazetidin-3-yl)methyl)-7-chloro-6-(2-chloro-6-hydroxyphenyl)-4-(2,4-diisopropylpyridin-3-yl)-1,4-dihydropyrido[2,3-b]pyrazine-2,3-dione] | ≤ 100 | ≤ 100 | ≤ 100
4 | C=CC(=O)N1CC(F)(Cn2c(=O)c(=O)n(-c3c(C)ccnc3C(C)C)c3nc(-c4c(Cl)ccc5c4OCO5)c(Cl)cc32)C1 [Example 60, 1-((1-acryloyl-3-fluoroazetidin-3-yl)methyl)-7-chloro-6-(5-chlorobenzo[d][1,3]dioxol-4-yl)-4-(2-isopropyl-4-methylpyridin-3-yl)-1,4-dihydropyrido[2,3-b]pyrazine-2,3-dione] | ≤ 100 | 100 to 1000 | ≤ 100
5 | C=C(F)C(=O)N1CC(F)(Cn2c(=O)c(=O)n(-c3c(C(C)C)ccnc3C(C)C)c3nc(-c4c(O)cccc4Cl)c(Cl)cc32)C1 [Example 64, 7-chloro-6-(2-chloro-6-hydroxyphenyl)-4-(2,4-diisopropylpyridin-3-yl)-1-((3-fluoro-1-(2-fluoroacryloyl)azetidin-3-yl)methyl)-1,4-dihydropyrido[2,3-b]pyrazine-2,3-dione] | ≤ 100 | 100 to 1000 | ≤ 100
6 | C=CC(=O)N1CC(F)(Cn2c(=O)c(=O)n(-c3c(C(C)C)ccnc3C(C)C)c3nc(-c4c(Cl)cccc4OC)c(Cl)cc32)C1 [Example 62, 1-((1-acryloyl-3-fluoroazetidin-3-yl)methyl)-7-chloro-6-(2-chloro-6-methoxyphenyl)-4-(2,4-diisopropylpyridin-3-yl)-1,4-dihydropyrido[2,3-b]pyrazine-2,3-dione] | ≤ 100 | ≤ 100 | ≤ 100

Now from value to compound:

Row | IC50 (KRAS G12C) [nM] | IC50 [1] [nM] | IC50 [2] [nM] | SMILES
7 | ≤ 100 | 100 to 1000 | ≤ 100 | C=CC(=O)N1CC(F)(Cn2c(=O)c(=O)n(-c3c(C)ccnc3C(C)C)c3nc(-c4c(C)cccc4OC)c(Cl)cc32)C1 [Example 58, 1-((1-acryloyl-3-fluoroazetidin-3-yl)methyl)-7-chloro-4-(2-isopropyl-4-methylpyridin-3-yl)-6-(2-methoxy-6-methylphenyl)-1,4-dihydropyrido[2,3-b]pyrazine-2,3-dione]
8 | ≤ 100 | ≤ 100 | ≤ 100 | C=CC(=O)N1CC(F)(Cn2c(=O)c(=O)n(-c3c(C)ccnc3C(C)C)c3nc(-c4c(Cl)cccc4OC)c(Cl)cc32)C1 [Example 57, 1-((1-acryloyl-3-fluoroazetidin-3-yl)methyl)-7-chloro-6-(2-chloro-6-methoxyphenyl)-4-(2-isopropyl-4-methylpyridin-3-yl)-1,4-dihydropyrido[2,3-b]pyrazine-2,3-dione]
9 | ≤ 100 | ≤ 100 | ≤ 100 | C=CC(=O)N1CC(F)(Cn2c(=O)c(=O)n(-c3c(C(C)C)ccnc3C(C)C)c3nc(-c4c(C)cccc4OC)c(Cl)cc32)C1 [Example 63]
